Reference: US9409887B2, “Mutant-selective EGFR inhibitors and uses thereof” (Celgene Avilomics Research, Inc., priority 2010, dated 2016)
pEC50, pIC50: −log10 of the molar value.

How the values were obtained:
[1] = system: WT-EGFR A431 cells; experiment: Cell proliferation (CellTiter Glo, 72 hr) in A431 cells; format: cell-based; conditions: Homo sapiens, A-431
Procedure: (§1) A431 human epidermoid carcinoma, H1975 human NSCLC and HCC827 human NSCLC adenocarcinoma cells were obtained from the American Type Culture Center (Manassas, Va.). A431 cells were grown in DMEM (Invitrogen, Carlsbad, Calif.) supplemented with 10% FBS (HyClone, South Logan, Utah) and 1% Penicillin-Streptomycin (P/S, Lonza, Walkersville, Md.). H1975 and HCC827 cells were grown in complete RPMI 1640 (Invitrogen) supplemented with 10% FBS and 1% P/S. All cells were maintained and propagated as monolayer cultures at 37° C. in a humidified 5% CO2 incubator.
(§2) Cells were plated in Growth Media supplemented with 5% FBS and 1% P/S at a density of 3,000 cells per well in 96 well tissue culture plates (Corning). Cells were allowed to settle down for 4 hr and then treated with 5, 1.25, 0.31, 0.078, 0.020 or 0.005 μM test compound for 72 hr. Cell viability was determined by CellTiter Glo (Promega, Madison, Wis.) and results were converted to cell numbers using a standard curve. Growth inhibition (GI50) values were determined by Graph Pad Prism.

[2] = system: HCC827 (delE746-A750 deletion mutation) cells; experiment: Cell proliferation (CellTiter Glo, 72 hr) in HCC827 cells; format: cell-based, human; conditions: for GI50: Homo sapiens, HCC827 cells, 72 hr; for Ratio WT/mutant (HCC827): proliferation GI50, WT EGFR (A431) vs HCC827
Procedure: as §1, §2

[3] = system: H1975 tumor; experiment: H1975 tumor in vivo study; parameters: species or system nu/nu mice
Procedure: Female nu/nu mice were implanted with 1×10^7H1975 tumor cells in 50% Matrigel subcutaneously (0.2 ml injection volume) in the flank. Tumor measurements were recorded three times per week. Tumors were pair matched when they reached an average size of 100-150 mg. Group size was 10 mice. Test compound was administered intraperitoneal, 25 mg/kg or 50 mg/kg daily for 21 days. % Tumor inhibition was determined at 15 days and 18 days. Tumor volume was followed until tumors reached 1500 mm^3 or 60 days. Tumor inhibition value for I-1 was >80% for 25 mg/kg at both 15 and 18 days, and >90% for 50 mg/kg at both 15 and 18 days.

[4] = system: H1975 (double mutation L858R/T790M) cells; experiment: Cell proliferation (CellTiter Glo, 72 hr) in H1975 cells; format: cell-based, human; conditions: for GI50: Homo sapiens, NCI-H1975, H1975 cells, 72 hr; for Ratio WT/mutant (H1975): proliferation GI50, WT EGFR (A431) vs H1975
Procedure: as §1, §2

[5] = target: EGFR double mutation L858R/T790M (H1975 cells) (Homo sapiens (Human), UniProt P00533, L858R/T790M); experiment: Phospho-EGFR signaling (immunoblotting, 1 hr) in H1975 cells; format: cell-based; conditions: for pEC50: H1975 cells, 1 hr compound, phospho-EGFR (Y1068); for Ratio WT/mutant (H1975): signaling EC50, WT EGFR (A431) vs H1975
Procedure: as §1
(§3) All primary antibodies were obtained from Cell Signaling (Danvers, Mass.) and used at 1:1000. Secondary antibodies were used at 1:10,000. Goat anti-mouse IgG IRDye 800CW antibody was obtained from LiCor Biosciences (Lincoln, Nebr.) and goat anti-rabbit IgG Alexa Fluor 680 was obtained from Invitrogen.
Cells were grown in 12-well plates (Corning, Coring, N.Y.) to 90% confluence and then incubated in low-serum (0.1% FBS) media for 16-18 hr. Cells were then treated with 5, 1.25, 0.31, 0.078, 0.020 or 0.005 μM test compound in low-serum (0.1% FBS) media for 1 hr. A431 cells were then stimulated with 50 ng/ml EGF (Peprotech, Rocky Hill, N.J.) for 15 min. After treatment, cell monolayers were washed with cold PBS (Invitrogen) and immediately lysed by scrapping into 60 uL cold Cell Extraction Buffer (Invitrogen) supplemented with Complete Protease inhibitors (Roche, Indianapolis, Ind.) and PhosphoSTOP (Roche) phosphatase inhibitors.
Lysate protein concentrations were determined by BCA Assay (Pierce, Rockford, Ill.) and 50 ug of each lysate was separated by 4-12% gradient SDS-PAGE (Invitrogen), transferred to nitrocellulose membrane (Biorad, Hercules, Calif.) and probed with specific antibodies. Phospho-protein signals were quantitated using Odyssey Infrared Imaging (Li-Cor Biosciences).
To assess phosphor-EGFR signaling, blots were probed with rabbit anti-Phospho-EGFR (Y1068) and mouse total anti-EGFR antibodies. Phospho-EGFR signal was normalized to total EGFR expression for each sample. Results are indicated as % DMSO control. Normalized data was fitted using a sigmoidal curve analysis program (Graph Pad Prism version 5) with variable Hill slope to determine the EC50 values.
The compound numbers recited in Table 3 correspond to the compound numbers in Table 1.

[6] = target: EGFR-WT (Homo sapiens (Human), UniProt P00533); experiment: Omnia biochemical assay, EGFR (WT) active enzyme; conditions: [EGFR-WT]=5 nM, [ATP]=15 uM, 30 min pre-incubation
Description: (§4) Omnia Assay Protocol for Potency Assessment Against EGFR (WT) and EGFR (T790M/L858R) Active Enzymes
(§5) Below describes the biochemical assay protocol using EGFR-WT and EGFR-T790M/L858R.
(§6) The mechanics of the assay platform are best described by the vendor (Invitrogen, Carlsbad, Calif.) on their website at the following URL: www.invitrogen.com/content.cfm?pageid=11338 or www.invitrogen.com/site/us/en/home/Pro ducts-and-Services/Applications/Drug-Discovery/Target-and-Lead-Identification-and-Validation/KinaseBiology/KB-Misc/Biochemical-Assays/Omnia-Kinase-Assays.html.
(§7) Briefly, 10× stocks of EGFR-WT (PV3872) from Invitrogen and EGFR-T790M/L858R (40350) from BPS Bioscience, San Diego, Calif., 1.13×ATP (AS001A) and appropriate Tyr-Sox conjugated peptide substrates (KCZ1001) were prepared in 1× kinase reaction buffer consisting of 20 mM Tris, pH 7.5, 5 mM MgCl2, 1 mM EGTA, 5 mM β-glycerophosphate, 5% glycerol (10× stock, KB002A) and 0.2 mM DTT (DS001A). 5 μL of each enzyme were pre-incubated in a Corning (#3574) 384-well, white, non-binding surface microtiter plate (Corning, N.Y.) for 30 min. at 25° C. with a 0.5 μL volume of 50% DMSO and serially diluted compounds prepared in 50% DMSO. Kinase reactions were started with the addition of 45 μL of the ATP/Tyr-Sox peptide substrate mix and monitored every 71 seconds for 60 minutes at λex360/λem485 in a Synergy^4 plate reader from BioTek (Winooski, Vt.). At the conclusion of each assay, progress curves from each well were examined for linear reaction kinetics and fit statistics (R^2, 95% confidence interval, absolute sum of squares). Initial velocity (0 minutes to ˜30 minutes) from each reaction was determined from the slope of a plot of relative fluorescence units vs time (minutes) and then plotted against inhibitor concentration to estimate IC50 from log [Inhibitor] vs Response, Variable Slope model in GraphPad Prism from GraphPad Software (San Diego, Calif.).
(§8) [EGFR-WT]=5 nM, [ATP]=15 uM, [Y12-Sox]=5 uM (ATP KMapp˜12 uM); and [EGFR-T790M/L858R]=2.5 nM, [ATP]=20 uM, [Y12-Sox]=5 uM (ATP KMapp˜20 uM).

[7] = target: EGFR-T790M/L858R (Homo sapiens (Human), UniProt P00533, L858R/T790M); experiment: Omnia biochemical assay, EGFR (T790M/L858R) active enzyme; conditions: for pIC50: [EGFR-T790M/L858R]=2.5 nM, [ATP]=20 uM, 30 min pre-incubation; for Ratio WT/mutant: biochemical IC50, WT EGFR vs EGFR (T790M/L858R)
Description: as §4, §5, §6, §7, §8

[8] = target: EGFR delE746-A750 mutation (HCC827 cells) (Homo sapiens (Human), UniProt P00533, DEL746-750); experiment: Phospho-EGFR signaling (immunoblotting, 1 hr) in HCC827 cells; format: cell-based
Procedure: as §1, §3
(§9) Cells were grown in 12-well plates (Corning, Coring, N.Y.) to 90% confluence and then incubated in low-serum (0.1% FBS) media for 16-18 hr. […]
(§10) Lysate protein concentrations were determined by BCA Assay (Pierce, Rockford, Ill.) and 50 ug of each lysate was separated by 4-12% gradient SDS-PAGE (Invitrogen), transferred to nitrocellulose membrane (Biorad, Hercules, Calif.) and probed with specific antibodies. Phospho-protein signals were quantitated using Odyssey Infrared Imaging (Li-Cor Biosciences). […]

[9] = target: WT EGFR (A431 cells) (Homo sapiens (Human), UniProt P00533); experiment: Phospho-EGFR signaling (immunoblotting, 1 hr) in A431 cells; format: cell-based; conditions: 1 hr compound, EGF stimulated, phospho-EGFR (Y1068)
Procedure: as §1, §3, §9, §10

SMILES | GI50 [1] [nM] | GI50 [2] [nM] | Ratio WT/mutant (HCC827) [2] | Tumor inhibition value ([3]; 25 mg/kg intraperitoneal daily, at 15 days) [%] | Tumor inhibition value ([3]; 25 mg/kg intraperitoneal daily, at 18 days) [%] | Tumor inhibition value ([3]; 50 mg/kg intraperitoneal daily, at 15 days) [%] | Tumor inhibition value ([3]; 50 mg/kg intraperitoneal daily, at 18 days) [%] | GI50 [4] [nM] | Ratio WT/mutant (H1975) [4] | pEC50 [5] | Ratio WT/mutant (H1975) [5] | pIC50 [6] | pIC50 [7] | Ratio WT/mutant [7] | pEC50 ([8]; HCC827 cells, 1 hr compound, phospho-EGFR (Y1068)) | Ratio WT/mutant (HCC827) ([8]; signaling EC50, WT EGFR (A431) vs HCC827) | pEC50 [9]
C=CC(=O)Nc1cccc(Nc2nc(Nc3ccc(NC4CN(CCF)C4)cc3OC)ncc2C(F)(F)F)c1 [Compound I-1, N-(3-(2-(4-(1-(2-fluoroethyl)azetidin-3-ylamino)-2-methoxyphenylamino)-5-(trifluoromethyl)pyrimidin-4-ylamino)phenyl)acrylamide] | 500 to 1000 | 10 to 100 | >10 | > 80 | > 80 | > 90 | > 90 | 10 to 100 | >10 | 7.00 to 8.00 | >35 | 8.00 to 9.00 | > 9.00 | >1 | 6.30 to 7.00 | >10 | < 6.00
C=CC(=O)Nc1cccc(Nc2nc(Nc3ccc(NC4CN(C(C)=O)C4)cc3OC)ncc2C(F)(F)F)c1 [Compound I-2, N-(3-(2-(4-(1-acetylazetidin-3-ylamino)-2-methoxyphenylamino)-5-(trifluoromethyl)pyrimidin-4-ylamino)phenyl)acrylamide] | > 1000 | 100 to 500 | >15 | – | – | – | – | 100 to 500 | >5 | – | – | 8.00 to 9.00 | > 9.00 | >15 | – | – | –
C=CC(=O)Nc1cccc(Nc2nc(Nc3ccc(NC4CN(C(=O)OC(C)(C)C)C4)cc3OC)ncc2C(F)(F)F)c1 [Compound I-3, tert-butyl 3-(4-(4-(3-acrylamidophenylamino)-5-(trifluoromethyl)pyrimidin-2-ylamino)-3-methoxyphenylamino)azetidine-1-carboxylate] | > 1000 | 10 to 100 | >20 | – | – | – | – | 100 to 500 | >5 | 6.30 to 7.00 | >10 | 6.52 to 7.00 | 8.00 to 9.00 | >50 | – | – | < 6.00
C=CC(=O)Nc1cccc(Oc2nc(Nc3ccc(NC(C)C)cc3OC)ncc2Cl)c1 [Compound I-4, N-(3-(5-chloro-2-(4-(isopropylamino)-2-methoxyphenylamino)pyrimidin-4-yloxy)phenyl)acrylamide] | > 1000 | 100 to 500 | >35 | – | – | – | – | 500 to 1000 | >1 | – | – | 7.00 to 7.52 | 8.00 to 9.00 | >25 | – | – | –
C=CC(=O)Nc1cccc(Nc2nc(Nc3ccc(NC(C)C)cc3OC)ncc2C(F)(F)F)c1 [Compound I-5, N-(3-(2-(4-(isopropylamino)-2-methoxyphenylamino)-5-(trifluoromethyl)pyrimidin-4-ylamino)phenyl)acrylamide] | 500 to 1000 | 100 to 500 | >5 | – | – | – | – | 100 to 500 | >1 | – | – | 7.52 to 8.00 | > 9.00 | >20 | – | – | –
